Results reported in patent US7473790B2 (Pfizer Inc., priority 2003, dated 2009).

The molecules below were run against T1, HCV polymerase (Hepatitis C virus genotype 1b, UniProt P26663) (assay: HCV polymerase primer/template-directed transcription assay (32P-GTP incorporation, filter binding)). Conditions: recombinant HCV polymerase; 30 minutes at 30° C.; concentration giving 50% inhibition of polymerase-directed transcription; read-out: IC50.
T1 construct: 2.5 pmoles (0.15 μg) HCV polymerase protein in a final volume of 75 μL
Type: biochemical
Method in brief: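 Recombinant genotype 1b polymerase (30 nM) extended biotin-dG12 primer on poly(rC)300 template with 1 μM GTP plus α-32P-GTP, pH 7.2, 10 mM MgCl2, 30 min at 30° C, 1% DMSO final. Products captured on DE filters and counted. IC50 fitted from triplicate cpm, with a tight-binding correction applied below 200 nM.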

T1 sequence (P26663 2420-3010): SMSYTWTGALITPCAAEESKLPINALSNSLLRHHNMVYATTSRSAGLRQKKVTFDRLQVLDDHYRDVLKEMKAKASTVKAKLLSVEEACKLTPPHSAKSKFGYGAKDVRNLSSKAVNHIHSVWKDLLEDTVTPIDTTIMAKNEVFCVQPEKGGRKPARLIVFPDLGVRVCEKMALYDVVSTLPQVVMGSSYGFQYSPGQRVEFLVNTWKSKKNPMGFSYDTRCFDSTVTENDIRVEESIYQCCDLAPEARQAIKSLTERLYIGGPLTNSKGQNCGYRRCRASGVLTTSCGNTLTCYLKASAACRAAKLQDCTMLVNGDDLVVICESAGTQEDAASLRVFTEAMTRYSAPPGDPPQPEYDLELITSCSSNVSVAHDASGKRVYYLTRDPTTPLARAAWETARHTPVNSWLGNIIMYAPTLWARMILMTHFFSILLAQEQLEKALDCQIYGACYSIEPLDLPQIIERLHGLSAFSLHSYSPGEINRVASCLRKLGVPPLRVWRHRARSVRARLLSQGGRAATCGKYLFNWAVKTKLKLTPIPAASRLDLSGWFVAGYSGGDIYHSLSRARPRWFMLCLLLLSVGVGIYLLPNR

**Q.** COc1ccc(CCC2(C3CCCC3)CC(O)=C(Cc3nc4nc(C)cc(C)n4n3)C(=O)O2)c(OC)c1 (stereo not drawn) [B(117), 6-Cyclopentyl-6-[2-(2,4-dimethoxy-phenyl)-ethyl]-3-(5,7-dimethyl-[1,2,4]triazolo[1,5-a]pyrimidin-2-ylmethyl)-4-hydroxy-5,6-dihydro-pyran-2-one] was tested. Which IC50 did it give?
**A.** 111 nM

**Q.** COc1ccc(CCC2(C3CCCC3)CC(O)=C(Cc3nc4ncc(C)cn4n3)C(=O)O2)c(OC)c1 (stereo not drawn) [B(118), 6-Cyclopentyl-6-[2-(2,4-dimethoxy-phenyl)-ethyl]-4-hydroxy-3-(6-methyl-[1,2,4]triazolo[1,5-a]pyrimidin-2-ylmethyl)-5,6-dihydro-pyran-2-one] was tested. Which IC50 did it give?
**A.** 200 nM

**Q.** Which IC50 does the source give for COc1ccc(CCC2(C3CCCC3)CC(O)=C(Cc3nc4ncc(Cl)cn4n3)C(=O)O2)c(OC)c1 (stereo not drawn) [B(119), 3-(6-Chloro-[1,2,4]triazolo[1,5-a]pyrimidin-2-ylmethyl)-6-cyclopentyl-6-[2-(2,4-dimethoxy-phenyl)-ethyl]-4-hydroxy-5,6-dihydro-pyran-2-one] here?
**A.** 70 nM

**Q.** How did the IC50 turn out when COc1ccc(CCC2(C3CCCC3)CC(=O)CC(=O)O2)cc1[C@@H](C)O (stereo partly drawn) [B(121), 6-Cyclopentyl-6-{2-[3-(1-hydroxy-ethyl)-4-methoxy-phenyl]-ethyl}-dihydro-pyran-2,4-dione] was run?
**A.** 6000 nM

**Q.** How did the IC50 turn out when Cc1cc(C)n2nc(CC3=C(O)CC(CCc4ccc(C5(C)OCCO5)c(Cl)c4)(C4CCCC4)OC3=O)nc2n1 (stereo not drawn) [B(122), 6-{2-[3-Chloro-4-(2-methyl-[1,3]dioxolan-2-yl)-phenyl]-ethyl}-6-cyclopentyl-3-(5,7-dimethyl-[1,2,4]triazolo[1,5-a]pyrimidin-2-ylmethyl)-4-hydroxy-5,6-dihydro-pyran-2-one] was run?
**A.** 7 nM

**Q.** Which IC50 does the source give for CC1(c2ccc(CCC3(C4CCCC4)CC(=O)CC(=O)O3)cc2Cl)OCCO1 (stereo not drawn) [B(123), 6-{2-[3-Chloro-4-(2-methyl-[1,3]dioxolan-2-yl)-phenyl]-ethyl}-6-cyclopentyl-dihydro-pyran-2,4-dione] here?
**A.** 580 nM

**Q.** How did the IC50 turn out when CC(=O)c1ccc(CCC2(C3CCCC3)CC(O)=C(Cc3nc4nc(C)cc(C)n4n3)C(=O)O2)cc1Cl (stereo not drawn) [B(124), 6-[2-(4-Acetyl-3-chloro-phenyl)-ethyl]-6-cyclopentyl-3-(5,7-dimethyl-[1,2,4]triazolo[1,5-a]pyrimidin-2-ylmethyl)-4-hydroxy-5,6-dihydro-pyran-2-one] was run?
**A.** 90 nM

**Q.** With Cc1cnc2nc(CC3=C(O)CC(CCc4ccc(C5(C#N)CC5)c(Cl)c4)(C4CCCC4)OC3=O)nn2c1 (stereo not drawn) [B(125), 1-(2-Chloro-4-{2-[2-cyclopentyl-4-hydroxy-5-(6-methyl-[1,2,4]triazolo[1,5-a]pyrimidin-2-ylmethyl)-6-oxo-3,6-dihydro-2H-pyran-2-yl]-ethyl}-phenyl)-cyclopropanecarbonitrile] as the molecule, how does the IC50 read?
**A.** 4 nM

**Q.** How did the IC50 turn out when N#CC1(c2ccc(CCC3(C4CCCC4)CC(O)=C(Cc4nc5ncc(Cl)cn5n4)C(=O)O3)cc2Cl)CC1 (stereo not drawn) [B(126), 1-(2-Chloro-4-{2-[5-(6-chloro-[1,2,4]triazolo[1,5-a]pyrimidin-2-ylmethyl)-2-cyclopentyl-4-hydroxy-6-oxo-3,6-dihydro-2H-pyran-2-yl]-ethyl}-phenyl)-cyclopropanecarbonitrile] was run?
**A.** 23 nM

**Q.** How did the IC50 turn out when CC(C)Oc1ccc(CCC2(C3CCCC3)CC(O)=C(Sc3cccc4cccnc34)C(=O)O2)cc1F (stereo not drawn) [C(01), 6-Cyclopentyl-6-[2-(3-fluoro-4-isopropoxy-phenyl)-ethyl]-4-hydroxy-3-(quinolin-8-ylsulfanyl)-5,6-dihydro-pyran-2-one] was run?
**A.** 337 nM

**Q.** How did the IC50 turn out when CC(C)Oc1ccc(CCC2(C3CCCC3)CC(O)=C(Sc3nc4cc(Cl)ccc4n3C(C)C)C(=O)O2)cc1F (stereo not drawn) [C(02)] was run?
**A.** 14 nM

**Q.** For COc1ccc(CCC2(C3CCCC3)CC(O)=C(Sc3cccc4cccnc34)C(=O)O2)cc1Cl (stereo not drawn) [C(03), 6-[2-(3-Chloro-4-methoxy-phenyl)-ethyl]-6-cyclopentyl-4-hydroxy-3-(quinolin-8-ylsulfanyl)-5,6-dihydro-pyran-2-one], which IC50 is on record?
**A.** 500 nM
